Measurements published in PMC7614227, “Structural Basis of Mammalian Respiratory Complex I Inhibition by Medicinal Biguanides” (Science (New York, N.Y.), 2023).

Assays:
[1] = system: T1, complex I in bovine heart mitochondrial membranes; assay: NEM sensitivity of NADH:O2 activity (active/deactive ratio); type: biochemical; conditions: as-prepared membranes incubated with 200 μM IM1092 and NEM at 4 °C
T1 construct: Fresh cow hearts were purchased from an abattoir; tissue C; Humphreys and Sons, Chelmsford, U.K. (abattoir); host or cells: bovine heart mitochondrial membranes
Description: (§1) and filtered (0.2 µM). The complexes were then separated by ion-exchange chromatography (Q-
(§2) Sepharose, GE Healthcare, as described previously (62)) and complex I-containing fractions
(§3) pooled and concentrated using a 50 kDa MWCO spin column (Merck Millipore). The samples
(§4) were clarified using a Spin-X 0.22 µm centrifugal filter (Corning) then applied to a Superose 6
(§5) Increase 5/150 (inhibitor-free dataset) or 10/300 column (biguanide-inhibited dataset) (GE
(§6) Healthcare) and eluted in 20 mM Tris-HCl (pH 7.14 at 20 ° C), 150 mM NaCl and 0.05% DDM.
(§7) Complex I elutes as a monodisperse peak at ~ 1.6 or 13 mL from the superose 6 increase 5/150 or
(§8) 10/300 columns, respectively (Fig. S3). The peak fractions for the biguanide-inhibited dataset were
(§9) concentrated using a 50 kDa MWCO spin column (Merck Millipore) and the protein concentration
(§10) quantified using a nanodrop UV-vis spectrophotometer (e280 = 0.2 mg-1 mL); IM1092 was then […]
(§11) µg of purified complex I was reduced with 10 mM dithiothreitol and analyzed on a Novex Tris- […]
(§12) NADH:O2 oxidoreduction by membranes was measured at 10 µg-protein mL-1 using 200 μM […]
(§13) assays. NADH:decylubiquinone (NADH:DQ) oxidoreduction by complex I was measured at 0.5 […]
(§14) measured by linear regression of the maximal slope and quantified by the absorbance of NADH at […]
(§15) was determined to evaluate the active/deactive ratio by incubating the membranes (2 mg-protein […]

HEPG2 C3A cells = assay: Cellular oxygen consumption (Seahorse XFe96, rotenone-sensitive OCR); type: cell-based
Description: from the weighed sample (1.15 mg) and solvent (0.78956g) masses of 4.31 mM, implying a purity of 93%. The proton NMR spectrum is consistent with the presented chemical structure and with the described shifts for this compound (27). The shifts observed here were ¹H NMR (DMSO, 400 […]
Cellular oxygen consumption measurements
HEPG2 C3A (ATCC CRL10741) cells were a kind gift from AstraZeneca and were authenticated by STR profiling (Eurofins). Cells were grown in Dulbecco's modified Eagle's medium (DMEM, Thermo Fisher Scientific) containing 10 mM glucose supplemented with 10% fetal bovine serum (Thermo Fisher Scientific) at 37 °C in 5% CO2. Per well, 2×10^4 cells were plated into an XFe96 (Agilent) cell plate and incubated for 24 h at 37 °C in 5% CO2. […] OCRs (oxygen consumption rates) were measured in a XFe96 Seahorse extracellular flux analyzer; 2 μM rotenone was used to inhibit complex I at the end of the assay. To calculate the normalized rotenone-sensitive OCR rates, the rotenone-insensitive rates (determined at the end of the experiment) were subtracted, and the traces normalized to 100% at the measurement before IM1092 addition. […] IC50 values were calculated using the normalized rates, following 6 hours of incubation […]

[2] = target: T2, detergent-solubilized, purified bovine complex I (Bos taurus, UniProt P03887+P03898+P17694+P42026); assay: NADH:decylubiquinone (NADH:DQ) oxidoreduction by purified complex I; type: biochemical
T2 construct: from tissue; host or cells: bovine heart mitochondrial membranes, solubilized in DDM, Q-Sepharose and Superose 6 chromatography
Description: as §1, §2, §3, §4, §5, §6, §7, §8, §9, §10, §11, §12, §13, §14, §15

[3] = target: T3, complex I catalysis in bovine heart mitochondrial membranes (Bos taurus, UniProt P03887+P03898+P17694+P42026); assay: NADH:O2 oxidoreduction by bovine heart mitochondrial membranes; type: biochemical
T3 construct: Fresh cow hearts were purchased from an abattoir; tissue C; Humphreys and Sons, Chelmsford, U.K. (abattoir); host or cells: bovine heart mitochondrial membranes

[4] = system: mitochondrial glycerophosphate dehydrogenase (mGPD); conditions: cited from earlier work
[5] = Fig. 1B, membranes of differing deactive complex I content, 1st labelled value (deactive content not given)
[6] = Fig. 1B, membranes of differing deactive complex I content, 2nd labelled value (deactive content not given)
[7] = Fig. 1B, membranes of differing deactive complex I content, 3rd labelled value (deactive content not given)
[8] = Fig. 1C, pH 9D(i): pH 9 deactivated membranes with antimycin A and AOX
[9] = Fig. 1C, pH 9D: pH 9 deactivated membranes

| Structure (SMILES) | deactive content of membranes [1] | effect on cellular oxygen consumption (HEPG2 C3A cells) | IC50 ([2]; catalysis of detergent-solubilized, purified bovine complex I (NADH:DQ)) | control catalytic rate recovered after dilution into inhibitor-free assay buffer ([2]; complex I incubated with 350 μM IM1092 as for cryo-EM grids, then diluted, reversibility) | IC50 [3, 5] | IC50 [3, 6] | IC50 [3, 7] | IC50 ([3]; Fig. 1C, pH 6) | IC50 ([3]; Fig. 1C, pH 7) | IC50 ([3]; Fig. 1C, pH 8) | IC50 ([3]; Fig. 1C, pH 9) | IC50 [3, 8] | IC50 [3, 9] | inhibition of human mGPD [4] |
| --- | --- | --- | --- | --- | --- | --- | --- | --- | --- | --- | --- | --- | --- | --- |
| N=C(N=C(N)N)NCCc1ccc(I)c(Cl)c1 [IM1092] | essentially the same deactive content as biguanide-free controls | inhibits cellular oxygen consumption | 86 µM | 98% | 32 µM | 20 µM | 4 µM | 43 µM | 27 µM | 21 µM | 4 µM | 0.816 µM | 0.846 µM |  |
| CN(C)C(=N)N=C(N)N [Metformin, metformin, reference compound] |  |  |  |  | 99000 µM | 52000 µM | 33000 µM |  |  | 38000 µM | 9000 µM | 8000 µM | 15000 µM | not to inhibit |
